Consider two molecules from patent publication US5037828A, “Piperazine derivatives, uses thereof and pharmaceutical compositions containing them” (Boehringer Mannheim GmbH, priority 1989, dated 1991).

Experiment [1] concerns the target α1 -receptor. Put plainly: Receptor binding study, displacement of tritium-labeled prazosin in brain membrane homogenates. Conditions: mean of 4-6 experiments, read-out: α1 -receptor affinity IC50. On the procedure:
1. The affinities of the compounds were studied in receptor binding studies using prazosin as tritium-labeled ligand. The investigations were performed in brain membrane homogenates. The affinity was expressed as IC50 -value (the IC50 -value is the concentration in nmol/l which displaces 50% of the labeled ligand). Low values indicate a high affinity.

For experiment [2], the system named is conscious spontaneously hypertensive rats. Put plainly: Blood pressure lowering activity in conscious spontaneously hypertensive rats. Format: in vivo, rat. Conditions: 10 mg/kg i.v.; 15 min after administration; mean arterial blood pressure; mean of 4-6 experiments. The procedure:
3. The blood pressure lowering activity of the test compounds was investigated in conscious spontaneously hypertensive rats. The blood pressure response to the test compounds was evaluated by means of continuous monitoring of the mean arterial blood pressure via an implanted catheter, electromagnetic transducer and a direct recording system. The test compounds were injected at a dose of 10 mg/kg i.v. and the blood pressure response was determined 15 min after administration.

Experiment [3] concerns isolated rat aortic strips. Put plainly: In vitro vasorelaxation of isolated rat aortic strips precontracted with noradrenaline. Conditions: 25 min, 3 × 10^-6 M, noradrenaline 10^-5 M precontraction, end of 25 min incubation, mean of 4-6 experiments. The procedure:
2. In vitro investigations were performed on isolated rat aortic strips precontracted with noradrenaline (10^-5 M). The test compounds were added to the bath solution at concentrations of 3×10^-6 M in order to test for vasorelaxation. The relaxation was evaluated at the end of an incubation period of 25 min. High values indicate a strong vasorelaxing effect.

The conditions of experiment [4]: in words; U.S. Pat. No. 3,997,666; cited from earlier work.
The subject of experiment [5] is anaphylactoid reactions in rats induced by dextran. Conditions: in words, U.S. Pat. No. 3,997,666; cited from earlier work.

As a reminder, the IC50 is the point on the concentration scale where inhibition reaches its midpoint. What is called inhibition is the relative decrease from the control value, in per cent. A higher inhibition goes with strong suppression. `COc1ccccc1N1CCN(CC(O)COc2ccc(O)c3ccccc23)CC1` (centres unmarked) [Example 3, 1-(2-Methoxyphenyl)-4-[3-(4-hydroxynaphth-1-yloxy)-2-hydroxypropyl]-piperazine]: the IC50 in experiment [1] turned out to be 52.7 nM. The blood pressure decrease in experiment [2] is on record as 48 mmHg. The same molecule gave an inhibition at 3 µM in experiment [3] of 85%.
For the molecule `COc1ccccc1N1CCN(CC(O)COc2cccc3ccccc23)CC1` (centres unmarked) [naftopidil, 1(2-methoxyphenyl)-4-/3-(naphth-1-yloxy)-2-hydroxypropyl/-piperazine], the antihypertensive properties result in experiment [4] was “possesses antihypertensive properties”. For the same molecule, the IC50 in experiment [1] amounted to 235 nM. Besides, the “inhibition of anaphylactoid reactions induced by dextran” value in experiment [5] is “inhibits anaphylactoid reactions in rats induced by dextran”. The molecule further came in with a blood pressure decrease in experiment [2] of 31 mmHg. This molecule also registered an inhibition at 3 µM in experiment [3] of 53%.
